Test results published in patent US5750104A, “High buffer-containing enteric coating digestive enzyme bile acid compositions and method of treating digestive disorders therewith” (Digestive Care Inc., priority 1996, dated 1998).

Legend:
pancreatic enzymes = test: Compatibility and biological activity of pancreatic enzymes in acidic UDCA compositions; assay type: biochemical; details: acidic form of UDCA
Excerpt: Pancreatic enzymes and salts of UDCA complement one another in the digestive system of a mammal. A dietary supplement containing both the enzymes and salts of UDCA would provide in a convenient pre-determined dose the remedy needed to treat the above-described diseased states. […] Lipase is especially affected by the low pH for the reasons that: […]

[1] = cited from earlier work

SMILES: C[C@H](CCC(=O)O)[C@H]1CC[C@H]2[C@@H]3[C@@H](O)C[C@@H]4C[C@H](O)CC[C@]4(C)[C@H]3CC[C@]12C [UDCA, ursodeoxycholic acid]
- compatibility with pancreatic enzymes (pancreatic enzymes): incompatible with pancreatic enzymes
- benefit at higher dosage ([1]; about 30 mg/kg of body weight, some patients): limited benefits
- effect on liver function ([1]; human, in vivo): augmenting liver function
- undesirable side effects ([1]; human, in vivo): severe diarrhea
- effect on nutritional state ([1]; patients having cystic fibrosis, hepatobiliary complications): improving the nutritional state
